SMILES strings stand for the structures.

For the experiment, the target named is T1, human orexin-2 (hOX2) receptor (Homo sapiens, UniProt O43614).
T1 construct: expressed in transfected cells
T1 sequence (O43614 1-444): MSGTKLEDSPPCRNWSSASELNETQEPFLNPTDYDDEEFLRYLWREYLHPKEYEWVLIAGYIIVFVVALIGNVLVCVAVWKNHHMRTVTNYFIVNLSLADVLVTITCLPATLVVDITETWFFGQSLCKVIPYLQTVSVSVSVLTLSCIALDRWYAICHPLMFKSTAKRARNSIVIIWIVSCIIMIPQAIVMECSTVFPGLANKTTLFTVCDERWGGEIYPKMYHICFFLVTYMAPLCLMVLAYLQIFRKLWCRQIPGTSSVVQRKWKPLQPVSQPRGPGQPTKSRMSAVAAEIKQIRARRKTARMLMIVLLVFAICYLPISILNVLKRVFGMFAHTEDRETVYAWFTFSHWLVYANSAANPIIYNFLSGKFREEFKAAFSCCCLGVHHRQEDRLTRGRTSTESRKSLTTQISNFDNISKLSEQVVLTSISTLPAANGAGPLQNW
The experiment can be described thus: Intracellular Ca2+ mobilization assay (FLIPR), CHO(dHFr-) cells expressing hOX2, orexin-A as agonist. Format: cell-based. The following applies: antagonist Kb=IC50/(1+[A]/EC50); orexin-A at EC80; CHO(dHFr-)-OX2R cells; antagonist applied 25 min before agonist. In short, it runs like this:
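Cells loaded with 4 μM Fluo-4 AM (1 h, 37° C) in HBSS/20 mM HEPES/2.5 mM probenecid; antagonists (11 concentrations, 0.0001-10 μM) added 25 min at 37° C before orexin-A at its daily-determined EC80. Peak fluorescence minus basal fitted to Hill equation for IC50; Kb=IC50/(1+[A]/EC50).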
On the technique in general: A change in cytosolic calcium serves as a functional read-out for many receptors and channels.

As a reminder, the Kb is the equilibrium dissociation constant of an antagonist, usually derived from a functional assay. A higher Kb goes with lower antagonist affinity. `Cc1ccc(C(F)(F)F)c(C(=O)N2CC[C@@H](Nc3cnc4cc(Cl)ccc4n3)C2)c1` [Example 176, [(R)-3-(6-Chloro-quinoxalin-2-ylamino)-pyrrolidin-1-yl]-(5-methyl-2-trifluoromethyl-phenyl)-methanone]: the Kb is 0.014 µM.

As for `Cc1onc(-c2ccccc2)c1C(=O)N1CC[C@@H](Nc2cnc3cc(Cl)ccc3n2)C1` [Example 177, [(R)-3-(6-Chloro-quinoxalin-2-ylamino)-pyrrolidin-1-yl]-(5-methyl-3-phenyl-isoxazol-4-yl)-methanone], the Kb turned out to be 0.0423 µM.

For the compound `Cc1noc(-c2ccccc2C(=O)N2CC[C@@H](Nc3cnc4cc(Cl)ccc4n3)C2)n1` [Example 178, [(R)-3-(6-Chloro-quinoxalin-2-ylamino)-pyrrolidin-1-yl]-[2-(3-methyl-[1,2,4]oxadiazol-5-yl)-phenyl]-methanone], the antagonist equilibrium constant (Kb) came to 0.0244 µM.

In the case of `Cc1nc(C(=O)N2CC[C@@H](Nc3cnc4cc(Cl)ccc4n3)C2)c(-c2ccccc2)s1` [Example 181, [(R)-3-(6-Chloro-quinoxalin-2-ylamino)-pyrrolidin-1-yl]-(2-methyl-5-phenyl-thiazol-4-yl)-methanone], the Kb turned out to be 0.028 µM.

Regarding `O=C(c1ccccc1C(F)(F)F)N1CC[C@@H](Nc2cnc3ccccc3n2)C1` [Example 182, [(R)-3-(Quinoxalin-2-ylamino)-pyrrolidin-1-yl]-(2-trifluoromethyl-phenyl)-methanone], the Kb is 0.027 µM.

`O=C(c1ccccc1OC(F)(F)F)N1CC[C@@H](Nc2cnc3ccccc3n2)C1` [Example 183, [(R)-3-(Quinoxalin-2-ylamino)-pyrrolidin-1-yl]-(2-trifluoromethoxy-phenyl)-methanone] showed a Kb of 0.02 µM.

In turn, `O=C(c1ccccc1OC(F)(F)C(F)F)N1CC[C@@H](Nc2cnc3ccccc3n2)C1` [Example 184, [(R)-3-(Quinoxalin-2-ylamino)-pyrrolidin-1-yl]-[2-(1,1,2,2-tetrafluoro-ethoxy)-phenyl]-methanone] registered a Kb of 0.0021 µM.

`Cc1ccc(C(F)(F)F)c(C(=O)N2CC[C@@H](Nc3cnc4ccccc4n3)C2)c1` [Example 185, (5-Methyl-2-trifluoromethyl-phenyl)-[(R)-3-(quinoxalin-2-ylamino)-pyrrolidin-1-yl]-methanone] returned a Kb of 0.0075 µM.

`Cc1nc(C(=O)N2CC[C@@H](Nc3cnc4ccccc4n3)C2)c(-c2ccccc2)s1` [Example 189, (2-Methyl-5-phenyl-thiazol-4-yl)-[(R)-3-(quinoxalin-2-ylamino)-pyrrolidin-1-yl]-methanone] had a Kb of 0.028 µM.

With `O=C(c1ccccc1OC(F)(F)C(F)F)N1CC[C@@H](Nc2cnc3ccc(Cl)cc3n2)C1` [Example 192, [(R)-3-(7-Chloro-quinoxalin-2-ylamino)-pyrrolidin-1-yl]-[2-(1,1,2,2-tetrafluoro-ethoxy)-phenyl]-methanone], the Kb was 0.0324 µM.

With `Cc1ccc(C(F)(F)F)c(C(=O)N2CC[C@@H](Nc3ccnc(-c4ccccc4)n3)C2)c1` [Example 200, (5-Methyl-2-trifluoromethyl-phenyl)-[(R)-3-(2-phenyl-pyrimidin-4-ylamino)-pyrrolidin-1-yl]-methanone], the Kb came to 0.0073 µM.

`Cc1ccc(C(F)(F)F)c(C(=O)N2CC[C@@H](Nc3nc4cc(F)c(F)cc4s3)C2)c1` [Example 202, [(R)-3-(5,6-Difluoro-benzothiazol-2-ylamino)-pyrrolidin-1-yl]-(5-methyl-2-trifluoromethyl-phenyl)-methanone] gave a Kb of 0.0046 µM.

`Cc1ccc(C(F)(F)F)c(C(=O)N2CC[C@@H](Nc3nc4c(Cl)cccc4s3)C2)c1` [Example 203]: the Kb turned out to be 0.008 µM.

With `Cc1ccc(C(F)(F)F)c(C(=O)N2CC[C@@H](Nc3cnc4cc(C(C)(C)C)ccc4n3)C2)c1` [Example 204], the Kb is 0.0052 µM.

Compound `Cc1ccc(C(F)(F)F)c(C(=O)N2CC[C@@H](Nc3cnc4cc(F)ccc4n3)C2)c1` [Example 207] yielded a Kb of 0.0046 µM.

For the compound `Cc1ccc(C(F)(F)F)c(C(=O)N2CC[C@@H](Nc3cnc4cc(C)c(Cl)cc4n3)C2)c1` [Example 212], the Kb came out at 0.0086 µM.

For the compound `Cc1ccc(C(F)(F)F)c(C(=O)N2CC[C@@H](Nc3cnc4cc(Cl)c(C)cc4n3)C2)c1` [Example 213], the Kb amounted to 0.0371 µM.

For the origin of these results see patent US7897627B2, “Heteroaryl derivatives as orexin receptor antagonists” (Hoffmann-La Roche Inc., priority 2007, dated 2011).
